The values that follow come from patent US20210087159A1, “TETRAHYDROCANNABINOLIC- CA[…] DERIVATIVES AND USES THEREOF” (AL&AM […]., priority 2018, published 2021).

SMILES strings stand for the structures.

Holding throughout (assay type): cell-based
One experiment relates to A549, lung carcinoma. Kind of experiment: CellTiter-Glo cell viability assay, cancer cell cytotoxicity/anti-proliferation panel (Chempartner). As to the method: (§1) In this study, the biological activity of certain compounds of the present invention on cancer cell cytotoxicity/anti-proliferation panel was tested using the CellTiter-Glo® cell viability assay. The compounds were dissolved in DMSO to make 10 mM solution.
(§2) The cell lines tested were all selected from the Chempartner's cell collection and included: Caco-2 ATCC colon adenocarcinoma; TE-6 RIKEN esophagus, carcinoma; PC-3 ATCC prostate adenocarcinoma; T47D, breast ductal carcinoma; U251, brain human glioma; A549, lung carcinoma; OMP-2, multiple myeloma; SK-HEP-1, liver adenocarcinoma; PANC-1, pancreas ductal carcinoma; AsPC-1, pancreas, ductal carcinoma; and U-87 MG, brain glioblastoma.
(§3) For the assays described herein, absolute inhibition of cells growth (%) and absolute IC50 (Abs IC50; […]) were used to derive a value that can be used to compare results within and across runs in the same assay, as well as between different assays.
(§4) • a. Prepare complete medium: Add FBS and appropriate additives according to the information sheet provided by the vendor. Mix gently. • b. Check the cell name and complete medium and passage number marked on the flask. For adherent cell lines, refer to c to k. For suspension cell lines, refer to g to k. • c. Remove and discard culture medium using a vacuum pump. • d. Briefly rinse the cell layer with 0.25% (w/v) trypsin-0.038% (w/v) EDTA solution to remove all traces of serum that contains trypsin inhibitor. • e. Add 3.0 ml of trypsin-EDTA solution to flask and observe cells under an inverted microscope until cell layer is dispersed. • f. Add 8.0 ml of complete growth medium and aspirate cells by gently pipetting. • g. Transfer the cell suspension to a centrifuge tube and centrifuge at 800-1000 rpm for 3-5 minutes. • h. Discard the supernatant using a vacuum pump. • i. Add appropriate volume of complete medium. Suspend the cell pellet by gently pipetting. • j. Count the cell numbers with Vi-cell XR and adjust cells to appropriate density. • k. Add 100 μL of cell suspension to 96-well opaque-walled clear bottom plates according to the planned plate layout and place the plates in the CO2 incubator overnight. • l. Plate layout:
(§5) • Plate preparation of testing articles. 10 mM stock solution of each one of the compounds (provided as powder) was prepared in DMSO. […] 0.5 μL of each of the diluted compounds was transferred to the wells containing 100 μL of the culture medium. The total dilution was 200 fold. Cells were incubated with the compounds for 72 hours at 5% CO2, 37° C.
(§6) • Thaw the CellTiter-Glo buffer and equilibrate to room temperature prior to use. • Equilibrate the lyophilized CellTiter-Glo substrate to room temperature prior to use. • Transfer the appropriate volume of CellTiter-Glo buffer into the amber bottle containing CellTiter-Glo substrate to reconstitute the lyophilized enzyme/substrate mixture. This forms the CellTiter-Glo reagent. • Mix by gently vortexing, swirling or by inverting the contents to obtain a homogeneous solution. The CellTiter-Glo substrate should go into solution easily in less than one minute.
(§7) • Observe the cell morphology under an inverted microscope after corresponding treatment. • Equilibrate the plate and its contents to room temperature for approximately 30 minutes. • Add 100 μL of CellTiter-Glo reagent to the assay plate by Multidrop Combi instrument. • Mix contents for 10 minutes on an orbital shaker to induce cell lysis. • Allow the plate to incubate at room temperature for 10 minutes to stabilize luminescent signal. • Paste the clear bottom with white back seal and record luminescence with Enspire. The settings should be: Luminescence, measurement time 0.1 ms.
(§8) Inhibition (%) and absolute IC50 (μM) of each compound was calculated with XLFit curve fitting software that is compatible to Activity Base.

Experiment [1] has as its system AsPC-1, pancreas, ductal carcinoma. The description is as above. On the procedure: as §1, §2, §3, §4, §5, §6, §7, §8
The test system of experiment [2] is PANC-1, pancreas ductal carcinoma. Described as above. The following applies: for IC50: Homo sapiens, PANC-1, 72 h, read-out: IC50 (absolute IC50). On the procedure:
as §1, §2, §3, §4, §5, §6, §7, §8

Experiment [3] deals with T47D, breast ductal carcinoma. Described as above. As to conditions: T47D. On the procedure:
as §1, §2, §3, §4, §5, §6, §7, §8

For experiment [4], the system named is U-87 MG, brain glioblastoma. Described as above. As to conditions: for IC50: Homo sapiens, 72 h, read-out: IC50 (absolute IC50). On the procedure:
as §1, §2, §3, §4, §5, §6, §7, §8

For experiment [5], the system named is PANC-1 (pancreatic carcinoma). Kind of experiment: XTT cytotoxicity assay (Pharma Seed). The following applies: Homo sapiens, 48 hours, 20, 10, 5, 1 μM, assay medium 1% FBS. As to the method: In this study, the cytotoxicity of several compounds of the present invention on lung and pancreatic cancer cell was evaluated.
PANC-1 (pancreatic carcinoma) culture medium: DMEM (High Glucose), supplemented with 10% FBS (heat inactivated), 2 mM L-glutamine, and 1% of Pen/Strep/Amp solution. PANC-1 assay medium: DMEM (High Glucose), supplemented with 1% FBS (heat inactivated), 2 mM L-glutamine, and 1% of Pen/Strep/Amp solution.
Each of the tested compounds was dissolved in DMSO to reach a stock concentration of 20 mM (and stored at −15° C.-−25° C. until use. Compound Ia28 (MW 484 g/mol, 3.05 mg total) was dissolved in 0.315 mL; compound Ia9 (MW 484 g/mol, 2.33 mg total) was dissolved in 0.241 mL; and compound Ia6 (MW 428.3 g/mol, 2.25 mg total) was dissolved in 0.262 mL.
On the day of incubation with the cells, each compound was diluted in DMSO to reach 2 mM, 1 mM, 0.5 mM, 0.1 mM stock concentrations (1:10, 1:20, 1:40 and 1:200), and each of these stocks was further diluted in assay medium 1:100 for final concentration of 20 μM, 10 μM, 5 μM, and 1 μM.
Part 1—cell number calibration. PANC-1 and A549 cells were each plated in a 96 well plate, in their culture medium, at various cell concentrations per well, in triplicates, and were allowed to attach for 24 hours. Thereafter, culture medium was discarded, assay medium was added, and the cells were incubated for additional 72 hours. Finally, assay medium was discarded, and fresh culture medium was added to the cells along with 50 μl XTT reagent. The OD was measured every two hours for 6 hours (three times).
The highest cells number/well were chosen for part 2 as follows: PANC-1 at 7,500 cells per well, A549 at 5000 cells per well.
Part 2—cells incubation with tested compounds. PANC-1 and A549 cells were plated in a 96 well plate, in their culture medium, at the optimal cell concentration according to the results from the previous section and were allowed to attach for 24 hours. Thereafter, the culture medium was discarded, and fresh assay medium was added to the cells, supplemented with elevating compound concentrations. Triton 0.1% was used as positive control for cell death. The cells were incubated for another 48 hours (TBD upon microscopic observation). Finally, fresh culture medium was added to the cells along with 50 μl XTT reagent. The OD was measured at the optimal time point according to the results in the previous section.

Another experiment deals with TNF-α. Put plainly: LPS induced cytokine release assay, TNF-α by ELISA in PBMCs. As to conditions: human PBMCs; for TNF-α: 72 h, ELISA (LPS control 18.16). The text has this: (§9) This study was aimed to test the effect of 12 compounds (THCA, Ia1, Ia5, Ia6, Ia9, Ia11, Ia15, Ia17, Ia24, Ia25, Ia27, and Ia28) on human peripheral blood mononuclear cells (PBMCs) challenged by lipopolysaccharide (LPS) through monitoring multiple inflammatory endpoints.
(§10) Blood samples were collected from healthy volunteers according to protocols that have been reviewed and approved by the Chempartner Institutional Ethic Committee (IEC) upon signing an Informed Consent Form (ICF).
(§11) Fresh PBMCs were isolated and seeded into 96-well plate, and diluted solutions of the tested compounds and 0.1 μg/mL LPS were then added (in triplicates). To serve as control, 3 wells with PBMCs only, 3 wells with 0.1 μg/mL LPS, and 2 wells with 1 μg/mL dexamethasone (Dex) and 0.1 μg/mL LPS were included. After 72 hours incubation, supernatant was collected for tumor necrosis factor-α (TNF-α) measurement by enzyme-linked immunosorbent assay (ELISA), and cell pellets were harvested for cell proliferation measurement by CellTiter-Glo® Luminescent Cell Viability Assay (CTG).
(§12) The human blood sample from an individual donor was diluted by the same volume of sterile phosphate buffered solution (PBS) and mixed sufficiently by gentle shake. 15 mL Lymphoprep™ medium was transferred into a new 50 mL centrifuge tube, and the diluted blood sample (30 mL) was then carefully added onto the surface of the medium, which consequently contained Ficoll 400 and blood in a volume ratio of 1:2. Four interfaces were observed after centrifugation, which are, from top to bottom, layers of plasma, mononuclear cells, Ficoll medium, and red blood cells (RBCs). Plasma was absorbed, and mononuclear cells were then transferred into another new sterile centrifuge tube. Then, sterile PBS buffer was added into the collected PBMCs for washing, at a volume ratio of 3:1. PBMCs were washed with 5-10 mL PBS twice before cell counting with cytometer. Cells were centrifuged at 350×g, for 10 min, at 20° C. with the acceleration (5) and deceleration (5) settings during the centrifugation. The cells were resuspended with RPMI 1640 complete medium (containing 10% FBS) for assay, and the density was adjusted with RPMI 1640 complete medium to the final concentration of 2E6 cells/mL. Cells suspension of the PBMCs (100 μL/well) were seeded into 96-well plate (#3903).
(§13) Diluted solutions of the tested compounds were prepared with RPMI 1640 complete medium according to the following layout. Compounds were prepared at 5-fold of concentration (50 μM), and then were diluted to the working concentration of 10 μM with RPMI 1640 complete medium and made 10-fold serially dilution (2 points). The diluted compounds (50 μL/well) were added to the indicated wells, and the plate was incubated at 37° C., 5% CO2, for 72 h.
(§14) LPS (0.1 μg/mL, 100 μL) was added into each well. Dex (1 μg/mL) was included as a positive control. Plate was incubated at 37° C., 5% CO2 for 72 h. Supernatant was collected to measure TNF-α by ELISA. Cell proliferation was detected by CTG.

For experiment [6], the system named is human peripheral blood mononuclear cells (PBMCs). Put plainly: Cell proliferation of LPS-challenged PBMCs by CellTiter-Glo (CTG). As to conditions: human PBMCs, 72 h (LPS control 84.50).
Text: as §9, §10, §11, §12, §13, §14

Experiment [7] relates to SK-HEP-1, liver adenocarcinoma. Kind of experiment: CellTiter-Glo cell viability assay, cancer cell cytotoxicity/anti-proliferation panel (Chempartner). The following applies: Homo sapiens, SK-HEP1, 72 h; read-out: IC50 (absolute IC50). As to the method: as §1, §2, §3, §4, §5, §6, §7, §8
Where [8] appears, read: 72 hours, compounds 10 μM starting, STS 2 μM starting, 10-pt, 3-fold dilution.

For `CCCCCc1cc2c(c(O)c1C(=O)N/N=C/c1ncccn1)[C@@H]1C=C(C)CC[C@H]1C(C)(C)O2` [Ia16, (6aR,10aR)-1-hydroxy-6,6,9-trimethyl-3-pentyl-N′-((E)-pyrimidin-2-ylmethylene)-6a,7,8,10a-tetrahydro-6H-benzo[c]chromene-2-carbohydrazide], the Inhibition in the experiment with A549, lung carcinoma (A549, 72 hours, compounds 10 μM starting, STS 2 μM starting, 10-pt, 3-fold dilution) was 70.01%; in experiment [1] (AsPC-1, 72 hours, compounds 10 μM starting, STS 2 μM starting, 10-pt, 3-fold dilution), 67.70%; in [2] (PANC-1, 72 hours, compounds 10 μM starting, STS 2 μM starting, 10-pt, 3-fold dilution) it was 85.71%; in experiment [3] (setting [8]) it was 47.20%; in [4] (setting [8]) it was 73.80%. For the same molecule, the IC50 was 5.53 µM in the experiment with A549, lung carcinoma (Homo sapiens, A549, 72 h, read-out: IC50 (absolute IC50)); 4.34 µM in [1] (Homo sapiens, ASPC1, 72 h, read-out: IC50 (absolute IC50)); 1.88 µM in experiment [2]; greater than 10 µM in experiment [3] (Homo sapiens, 72 h, read-out: IC50 (absolute IC50)); 3.37 µM in experiment [4]; 7 µM in experiment [5].
In [5], `C=C(C)[C@@H]1CCC(C)=C[C@H]1c1c(O)cc(CCCCC)c(C(=O)NCCN2CCCC2)c1O` [Ia27, (1′R,2′R)-2,6-dihydroxy-5′-methyl-4-pentyl-2′-(prop-1-en-2-yl)-N-(2-(pyrrolidin-1-yl)ethyl)-1′,2′,3′,4′-tetrahydro-[1,1′-biphenyl]-3-carboxamide] came in with an IC50 of 7.5 µM. Besides, the TNF-α in the experiment with TNF-α (compound 1 μM + 0.1 μg/mL LPS) is 36.23 pg/mL; with TNF-α (compound 10 μM + 0.1 μg/mL LPS) it was 22.09 pg/mL. The “change of TNF-α expression in LPS-treated cells” value in the experiment on TNF-α (tested concentrations of 1 M and 10 M (so in the source)) is “decreased TNF-α expression”. In addition, the CTG signal in experiment [6] (compound 1 μM + 0.1 μg/mL LPS) is 81.90 10^4; in experiment [6] (compound 10 μM + 0.1 μg/mL LPS), 78.67 10^4.
`CN[C@@H]1C[C@H]2O[C@@](C)([C@@H]1OC)n1c3ccccc3c3c4c(c5c6ccccc6n2c5c31)C(=O)NC4` [STS, Staurosporine, reference compound]: the IC50 in experiment [2] came to 0.04 µM; in experiment [7] it was 0.07 µM; in experiment [4], 0.082 µM.
